# Data published in patent US20090181898A1, “ABUSE-RESISTANT A[…]” (SHIRE LLC, priority 2002, published 2009).
# Values joined by “and” are separate entries in the source; they are usually repeats but may differ in a detail not shown here. Identical values can stand only once. Marks after values point to notes of the source that are not given here.
# What was measured:
# [1] = Oral bioavailability of L-lysine-d-amphetamine dimesylate at various doses 1.5-60 mg/kg (ELISA); conditions: rat
# Protocol: The mean plasma concentrations for 1.5, 3, and 6 mg/kg are shown in Table 6, Table 7, and Table 8, respectively.
# [2] = Oral pharmacokinetics of L-lysine-d-amphetamine diHCl compared to d-amphetamine sulfate (ELISA); conditions: rat; for Plasma concentrations of d-amphetamine, individual animals: 3 mg/kg d-amphetamine base, Rat #1-#4; for Mean plasma d-amphetamine concentration: n=4
substance,measurement,setting,value
d-amphetamine,AUC of d-amphetamine,[1]; 3 mg/kg,587 ng·h/mL
same,Cmax of d-amphetamine,[1]; 3 mg/kg,141 ng/mL
same,Tmax of d-amphetamine,[1]; 3 mg/kg,60 min
same,"Tmax, Percent (of Amp)",[1]; 3 mg/kg,100%
same,Mean plasma amphetamine concentration,"[1]; 3 mg/kg, 0 h",0 ng/mL
same,Mean plasma amphetamine concentration,"[1]; 3 mg/kg, 0.5 h",107 ng/mL
same,Mean plasma amphetamine concentration,"[1]; 3 mg/kg, 1 h",121 ng/mL
same,Mean plasma amphetamine concentration,"[1]; 3 mg/kg, 3 h",91 ng/mL
same,Mean plasma amphetamine concentration,"[1]; 3 mg/kg, 5 h",62 ng/mL
same,Mean plasma amphetamine concentration,"[1]; 3 mg/kg, 8 h",19 ng/mL
same,AUC of d-amphetamine,[1]; 6 mg/kg,807 ng·h/mL
same,Cmax of d-amphetamine,[1]; 6 mg/kg,205 ng/mL
same,Tmax of d-amphetamine,[1]; 6 mg/kg,33.8 min
same,"Tmax, Percent (of Amp)",[1]; 6 mg/kg,100%
same,Mean plasma amphetamine concentration,"[1]; 6 mg/kg, 0 h",0 ng/mL
same,Mean plasma amphetamine concentration,"[1]; 6 mg/kg, 0.5 h",186 ng/mL
same,Mean plasma amphetamine concentration,"[1]; 6 mg/kg, 1 h",167 ng/mL
same,Mean plasma amphetamine concentration,"[1]; 6 mg/kg, 3 h",111 ng/mL
same,Mean plasma amphetamine concentration,"[1]; 6 mg/kg, 5 h",78 ng/mL
same,Mean plasma amphetamine concentration,"[1]; 6 mg/kg, 8 h",35 ng/mL
same,AUC of d-amphetamine,[1]; 12 mg/kg,"2,738 ng · h/ml"
same,Cmax of d-amphetamine,[1]; 12 mg/kg,621 ng/mL
same,Tmax of d-amphetamine,[1]; 12 mg/kg,56.3 min
same,"Tmax, Percent (of Amp)",[1]; 12 mg/kg,100%
same,Mean plasma amphetamine concentration,"[1]; 12 mg/kg, 0.5 h",621 ng/mL
same,Mean plasma amphetamine concentration,"[1]; 12 mg/kg, 1 h",512 ng/mL
same,Mean plasma amphetamine concentration,"[1]; 12 mg/kg, 3 h",376 ng/mL
same,Mean plasma amphetamine concentration,"[1]; 12 mg/kg, 5 h",314 ng/mL
same,Mean plasma amphetamine concentration,"[1]; 12 mg/kg, 8 h",103 ng/mL
same,Cmax of d-amphetamine,[1]; 30 mg/kg,"3,726 ng/ml"
same,AUC of d-amphetamine (0-5 h),"[1]; 30 mg/kg, 0-5 h","12,623* ng · h/ml"
same,Mean plasma amphetamine concentration,"[1]; 30 mg/kg, 0.5 h","2,583 ng/ml"
same,Mean plasma amphetamine concentration,"[1]; 30 mg/kg, 1 h","3,162 ng/ml"
same,Mean plasma amphetamine concentration,"[1]; 30 mg/kg, 3 h","2,620 ng/ml"
same,Mean plasma amphetamine concentration,"[1]; 30 mg/kg, 5 h","1,535 ng/ml"
same,Mean plasma amphetamine concentration,"[1]; 30 mg/kg, 8 h",164 ng/mL
same,Cmax of d-amphetamine,[1]; 60 mg/kg,"4,101 ng/ml"
same,AUC of d-amphetamine (0-[…]),"[1]; 60 mg/kg, 0-[…]","5,081** ng · h/ml"
same,Mean plasma amphetamine concentration,"[1]; 60 mg/kg, 0.5 h","3,566 ng/ml"
same,Mean plasma amphetamine concentration,"[1]; 60 mg/kg, 1 h","3,556 ng/ml"
same,AUC of d-amphetamine,[1]; […],481 ng·h/mL
same,Cmax of d-amphetamine,[1]; […],133 ng/mL
same,Tmax of d-amphetamine,[1]; […],56.3 min
same,"Tmax, Percent (of Amp)",[1]; […],100%
same,Mean plasma amphetamine concentration,"[1]; […], 0 h",0 ng/mL
same,Mean plasma amphetamine concentration,"[1]; […], 0.5 h",126 ng/mL
same,Mean plasma amphetamine concentration,"[1]; […], 1 h",101 ng/mL
same,Mean plasma amphetamine concentration,"[1]; […], 3 h",66 ng/mL
same,Mean plasma amphetamine concentration,"[1]; […], 5 h",40 ng/mL
same,Mean plasma amphetamine concentration,"[1]; […], 8 h",17 ng/mL
same,AUC (0-8 h) of d-amphetamine,[2]; 3 mg/kg,341 ± 35 ng·h/mL
same,Cmax of d-amphetamine,[2]; 3 mg/kg,111 ± 27 ng/mL
same,Mean Peak of d-amphetamine,[2]; 3 mg/kg,129 ng/mL
same,"Mean Peak, Percent Amphetamine",[2]; 3 mg/kg,100%
same,"Plasma concentrations of d-amphetamine, individual animals",[2]; 0.5 h,144 ng/mL and 157 ng/mL and 101 ng/mL and 115 ng/mL
same,"Plasma concentrations of d-amphetamine, individual animals",[2]; 1 h,152 ng/ml and 78 ng/ml (2×) and 115 ng/ml
same,"Plasma concentrations of d-amphetamine, individual animals",[2]; 3 h,34 ng/mL and 45 ng/mL and 72 ng/mL and 38 ng/mL
same,"Plasma concentrations of d-amphetamine, individual animals",[2]; 5 h,20 ng/mL and 14 ng/mL and 12 ng/mL and 15 ng/mL
same,"Plasma concentrations of d-amphetamine, individual animals",[2]; 8 h,3 ng/ml (2×) and 2 ng/ml (2×)
same,Mean plasma d-amphetamine concentration,"[2]; 3 mg/kg, 0.5 h",129 ng/mL
same,Mean plasma d-amphetamine concentration,"[2]; 3 mg/kg, 1 h",106 ng/mL
same,Mean plasma d-amphetamine concentration,"[2]; 3 mg/kg, 3 h",47 ng/mL
same,Mean plasma d-amphetamine concentration,"[2]; 3 mg/kg, 5 h",15 ng/mL
same,Mean plasma d-amphetamine concentration,"[2]; 3 mg/kg, 8 h",2 ng/mL
